Eight compounds from ChEMBL document CHEMBL1275545, “Carbapenem-resistant Acinetobacter baumannii isolates expressing the blaOXA-23 gene associated with ISAba4 in Belgium” (2008) can be followed below.

For this assay, the system named is Acinetobacter baumannii. Put plainly: Antibacterial activity against Acinetobacter baumannii GIL1 isolate harboring intrinsic blaOXA-51/69-like gene by Etest method. The assay is classed as functional.

In brackets after ≈: the same amount, converted by molar mass. Where only a bound is given, the exact number is not on record here.

In turn, `NCC[C@H](O)C(=O)N[C@@H]1C[C@H](N)[C@@H](O[C@H]2O[C@H](CN)[C@@H](O)[C@H](O)[C@H]2O)[C@H](O)[C@H]1O[C@H]1O[C@H](CO)[C@@H](O)[C@H](N)[C@H]1O` [AMIKACIN] yielded a minimal inhibitory concentration (MIC) above 256 µg/mL.

In turn, `O=C(O)c1cn(C2CC2)c2cc(N3CCNCC3)c(F)cc2c1=O` [CIPROFLOXACIN] showed an MIC above 32 µg/mL.

The compound `C[C@@H](O)[C@H]1C(=O)N2C(C(=O)O)=C(SCCNC=N)C[C@H]12` [IMIPENEM ANHYDROUS] came in with an MIC above 32 µg/mL.

For the compound `C[C@@H](O)[C@H]1C(=O)N2C(C(=O)O)=C(S[C@@H]3CN[C@H](C(=O)N(C)C)C3)[C@H](C)[C@H]12` [MEROPENEM], the MIC was above 32 µg/mL.

In turn, `CO[C@H]1/C=C/O[C@@]2(C)Oc3c(C)c(O)c4c(O)c(c(/C=N/N5CCN(C)CC5)c(O)c4c3C2=O)NC(=O)/C(C)=C\C=C\[C@H](C)[C@H](O)[C@@H](C)[C@@H](O)[C@@H](C)[C@H](OC(C)=O)[C@@H]1C` [RIFAMPIN] displayed a minimum inhibitory concentration (MIC) of 3 µg/mL (≈ 3.65 µM).

Compound `CC1(C)[C@H](C(=O)O)N2C(=O)C[C@H]2S1(=O)=O` [SULBACTAM] gave an MIC of 48 µg/mL (≈ 206 µM).

As to `CN(C)c1cc(NC(=O)CNC(C)(C)C)c(O)c2c1C[C@H]1C[C@H]3[C@H](N(C)C)C(O)=C(C(N)=O)C(=O)[C@@]3(O)C(O)=C1C2=O` [TIGECYCLINE], the lowest concentration to inhibit growth (MIC) was 6 µg/mL (≈ 10.2 µM).

As to COLISTIN, it took 0.5 µg/mL to inhibit growth (MIC).
